{"source": "patent US20170007595A1", "about": "“NSD3 INHIBITORS FOR TREATMENT OF CANCERS” (THE BRIGHAM AND WOMEN'S HOSPITAL, INC., priority 2014, published 2017)", "key": {"[1]": {"system": "1221 cells (NSD3-NUT-positive NMC)", "assay": "high throughput 384-well immunofluorescence analysis (keratin, Ki-67, cell number) of 1221 NMC cells", "type": "cell-based, human", "conditions": "72 h, dose-dependent", "experimental": "For TC-797, Per403, and 8645 cells, 7×10^6 cells were transfected with 50 nM siRNA using Nucleofector II (Lonza, Basel, Switzerland) and Amaxa solution R and plated in 100 mm cell culture dish. 1221 cells were transfected using RNAi-MAX (Invitrogen) using the manufacturer's protocol. Briefly, reverse transfection procedure was used to deliver 50 nM siRNA to 33×10^4 cells in a 6 well plate. Cells were analyzed for mRNA levels 24 h after transfection. Sequences of siRNA used were: siControl, ON-TARGET plus siRNA #1 (Dharmacon, Cat # D-001810-01-20), siNUT-1 (targeting coding sequence) […] (SEQ ID NO: 57), siNUT-2 (targeting the 3′ UTR) […] (SEQ ID NO: 58), siBRD4 5′ siGENOME Human BRD4 (Dharmacon Cat # D-004937-02), siBRD4 3′ […] (SEQ ID NO: 59), siNSD3-6 ON-TARGETplus Human WHSC1L1 (54904) (Dharmacon Cat # J-012875-06), siNSD3-7, ON-TARGETplus Human WHSC1L1 (54904) siRNA (Dharmacon Cat # J-012875-07), siNSD3 3′-1 […] (SEQ ID NO: 15), si NSD3 3′-2 […] […]\nCells were transfected in 384 well format using 50 nM control siRNA (above), NSD3 siRNA (above), BRD4 siRNA, and NUT siRNA (above), as described (6), or a dose range of JQ1 treatment. […] Each condition was performed in triplicate in 384-well plate format in three separate experiments, where wells were analyzed using MetaXpress with Multi Wavelength Cell Scoring for cell number, average keratin fluorescence pixel intensity, and % Ki-67 per well. […]"}, "[2]": {"system": "BET Bromodomains", "conditions": "cited from earlier work"}, "[3]": {"system": "macrophages", "conditions": "cited from earlier work"}, "[4]": {"biological_target": "T1, NSD3 (endogenous, wild type) (human, UniProt Q9BZ95 1-1437, limits assumed)", "T1 construct": "Endogenous protein of cell lysates detected with an anti-NSD3 antibody; also called wild type NSD3; WHSC1L1", "T1 sequence": "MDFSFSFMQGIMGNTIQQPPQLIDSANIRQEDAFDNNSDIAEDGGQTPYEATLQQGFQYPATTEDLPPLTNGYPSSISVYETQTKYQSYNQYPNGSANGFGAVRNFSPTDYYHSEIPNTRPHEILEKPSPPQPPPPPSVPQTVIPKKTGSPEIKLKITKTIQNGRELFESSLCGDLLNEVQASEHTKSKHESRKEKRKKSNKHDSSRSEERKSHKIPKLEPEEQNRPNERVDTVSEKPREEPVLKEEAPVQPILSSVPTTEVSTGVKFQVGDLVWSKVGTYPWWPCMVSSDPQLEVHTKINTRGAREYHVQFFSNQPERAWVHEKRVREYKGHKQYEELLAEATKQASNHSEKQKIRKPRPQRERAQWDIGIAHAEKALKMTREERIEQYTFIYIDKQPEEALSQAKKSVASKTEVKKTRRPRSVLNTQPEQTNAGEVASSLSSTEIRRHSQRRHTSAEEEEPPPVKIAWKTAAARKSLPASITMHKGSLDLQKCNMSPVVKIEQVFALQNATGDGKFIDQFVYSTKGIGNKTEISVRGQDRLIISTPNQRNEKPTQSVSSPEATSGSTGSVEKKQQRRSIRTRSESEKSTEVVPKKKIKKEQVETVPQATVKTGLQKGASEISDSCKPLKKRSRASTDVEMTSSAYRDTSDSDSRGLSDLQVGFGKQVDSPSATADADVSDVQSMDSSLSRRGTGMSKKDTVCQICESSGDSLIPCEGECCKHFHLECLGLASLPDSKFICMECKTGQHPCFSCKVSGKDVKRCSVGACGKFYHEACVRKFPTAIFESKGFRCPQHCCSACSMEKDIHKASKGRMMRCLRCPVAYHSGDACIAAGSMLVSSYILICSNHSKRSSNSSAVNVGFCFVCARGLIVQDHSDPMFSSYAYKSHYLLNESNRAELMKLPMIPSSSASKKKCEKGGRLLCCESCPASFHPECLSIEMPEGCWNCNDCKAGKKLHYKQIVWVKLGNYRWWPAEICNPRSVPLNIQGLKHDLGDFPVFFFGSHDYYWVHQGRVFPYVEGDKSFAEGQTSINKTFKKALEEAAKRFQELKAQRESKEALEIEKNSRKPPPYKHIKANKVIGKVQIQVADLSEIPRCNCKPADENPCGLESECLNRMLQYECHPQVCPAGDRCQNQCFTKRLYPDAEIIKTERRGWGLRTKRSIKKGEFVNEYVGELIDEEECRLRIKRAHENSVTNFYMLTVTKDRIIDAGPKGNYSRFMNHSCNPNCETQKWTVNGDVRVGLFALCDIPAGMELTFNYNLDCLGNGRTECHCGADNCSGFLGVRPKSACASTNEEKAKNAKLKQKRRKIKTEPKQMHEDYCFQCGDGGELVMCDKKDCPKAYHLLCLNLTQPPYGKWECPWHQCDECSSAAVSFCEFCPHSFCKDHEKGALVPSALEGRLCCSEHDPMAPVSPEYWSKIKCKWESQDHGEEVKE", "assay": "anti-HA co-immunoprecipitation from C33A-6TR lysates, Western blot with anti-NSD3", "procedure": "For co-immunoprecipitation experiments of HA-tagged proteins, C33A-6TR cells stably expressing HA-tagged constructs under a Tet-inducible promoter were used. Protein extracts were prepared 24 h after transfection or induction with Doxycycline (1 μg/ml). Cells were lysed in lysis buffer (50 mM Tris-HCl [pH 7.5], 150 mM NaCl, 0.5% Nonidet P-40) with freshly added protease inhibitors (Roche Complete, EDTA free protease inhibitor cocktail, Roche, Indianapolis, Ind.). Extracts were adjusted for protein concentration and 10% of extracts were used as Input Immunoprecipitations were performed using 15 μl of HA-resin (Sigma A2095). Extracts were incubated overnight at 4° C., and precipitated proteins were detected by Western blot analysis."}}}
{"molecule": "Cc1sc2c(c1C)C(c1ccc(Cl)cc1)=N[C@@H](CC(=O)OC(C)(C)C)c1nnc(C)n1-2", "note": "[JQ1, (S)-tert-butyl 2-(4-(4-chlorophenyl)-2,3,9-trimethyl-6H-thieno[3,2-f][1,2,4]triazolo[4,3-a][1,4]diazepin-6-yl)acetate]", "values": [{"measurement": "differentiation (keratin intensity)", "setting": "[1]; dose range of JQ1 vs DMSO", "result": "results in differentiation"}, {"measurement": "proliferation (cell number)", "setting": "[1]; increasing concentrations of JQ1 vs DMSO", "result": "arrested proliferation"}]}
{"molecule": "O=c1cc(N2CCOCC2)oc2c(-c3ccccc3)cccc12", "note": "[LY294002]", "values": [{"measurement": "BET inhibition", "setting": "[2]", "result": "reported to be a BET inhibitor"}]}
{"molecule": "CCNC(=O)C[C@@H]1N=C(c2ccc(Cl)cc2)c2cc(OC)ccc2-n2c(C)nnc21", "note": "[I-BET-762]", "values": [{"measurement": "production of proinflammatory proteins by macrophages", "setting": "[3]", "result": "suppresses the production of proinflammatory proteins"}]}
{"molecule": "HA-tagged NUT (full length) (other, also called HA-NUT; not shown: N-terminal HA tag) MASDGASALPGPDMSMKPSAALSPSPALPFLPPTSDPPDHPPREPPPQPIMPSVFSPDNPLMLSAFPSSLLVTGDGGPCLSGAGAGKVIVRVKTEGGSAEPSQTQNFILTQTALNSTAPGTPCGGLEGPAPPFVTASNVKTILPSKAVGVSQEGPPGLPPQPPPPVAQLVPIVPLEKAWPGPHGTTGEGGPVATLSKPSLGDRSKISKDVYENFRQWQRYKALARRHLSQSPDTEALSCFLIPVLRSLARLKPTMTLEEGLPLAVQEWEHTSNFDRMIFYEMAERFMEFEAEEMQIQNTQLMNGSQGLSPATPLKLDPLGPLASEVCQQPVYIPKKAASKTRAPRRRQRKAQRPPAPEAPKEIPPEAVKEYVDIMEWLVGTHLATGESDGKQEEEGQQQEEEGMYPDPGLLSYINELCSQKVFVSKVEAVIHPQFLADLLSPEKQRDPLALIEELEQEEGLTLAQLVQKRLMALEEEEDAEAPPSFSGAQLDSSPSGSVEDEDGDGRLRPSPGLQGAGGAACLGKVSSSGKRAREVHGGQEQALDSPRGMHRDGNTLPSPSSWDLQPELAAPQGTPGPLGVERRGSGKVINQVSLHQDGHLGGAGPPGHCLVADRTSEALPLCWQGGFQPESTPSLDAGLAELAPLQGQGLEKQVLGLQKGQQTGGRGVLPQGKEPLAVPWEGSSGAMWGDDRGTPMAQSYDQNPSPRAAGERDDVCLSPGVWLSSEMDAVGLELPVQIEEVIESFQVEKCVTEYQEGCQGLGSRGMISLGPGETLVPGDTESSVIPCGGTVAAAALEKRNYCSLPGPLRANSPPLRSKENQEQSCETVGHPSDLWAEGCFPLLESGDSTLGSSKETLPPTCQGNLLIMGTEDASSLPEASQEAGSRGSFSPLLETIEPVNILDVKDDCGLQLRVSEDTCPLNVHSYDPQGEGRVDPDLSKPKNLAPLQESQESYTTGTPKATSSHQGLGSTLPRRGTRNAIVPRETSVSKTHRSADRAKGKEKKKKEAEEEDEELSNFAYLLASKLSLSPREHPLSPHHASGGQGSQRASHLLPAGAKGPSKLPYPVAKSGKRALAGGPAPTEKTPHSGAQLGVPREKPLALGVVRPSQPRKRRCDSFVTGRRKKRRRSQ", "values": [{"measurement": "binding result", "setting": "[4]", "result": "no binding"}]}
